Assay results taken from US11840686B2, “Modulation of prekallikrein (PKK) expression” (Ionis Pharmaceuticals, Inc., priority 2013, dated 2023).
Strand notation (5' to 3'): a small letter for the sugar, then the base; units joined by * are phosphorothioate-linked, units joined directly phosphodiester-linked; [ ] holds rarer units or linkages, { } end groups; capitals alone tell only the bases. e = 2'-O-(2-methoxyethyl) (MOE); k = constrained ethyl (cEt); [5mC] = 5-methylcytosine; d = 2'-deoxy (DNA)

Assays:
[1] = system: human PKK mRNA; assay: Antisense inhibition of human PKK mRNA in HepaRG cells, 1,000 nM, MOE/deoxy/cEt oligonucleotides (Example 3); assay type: cell-based
Protocol: Additional antisense oligonucleotides were designed targeting a PKK nucleic acid and were tested for their effects on PKK mRNA in vitro.
The chimeric antisense oligonucleotides in the tables below were designed as deoxy, MOE and cEt gapmers. The gapmers are 16 nucleosides in length wherein the nucleoside have either a MOE sugar modification, a cEt sugar modification, or a deoxy modification. The ‘Chemistry’ column describes the sugar modifications of each oligonucleotide. ‘k’ indicates an cEt sugar modification; the number indicates the number of deoxynucleosides; otherwise, indicates a deoxynucleoside; and ‘e’ indicates a 2′-O-methoxyethyl modification. The internucleoside linkages throughout each gapmer are phosphorothioate linkages. All cytosine residues throughout each oligonucleotide are 5-methylcytosines. “Start site” indicates the 5′-most nucleoside to which the gapmer is targeted in the human gene sequence. “Stop site” indicates the 3′-most nucleoside to which the gapmer is targeted in the human gene sequence.
Cultured HepaRG™ cells at a density of 20,000 cells per well were transfected using electroporation with 1,000 nM antisense oligonucleotide. After a treatment period of approximately 24 hours, RNA was isolated from the cells and PKK mRNA levels were measured by quantitative real-time PCR. Human primer probe set RTS3454 was used to measure mRNA levels. ISIS 531231 was also included in this assay. PKK mRNA levels were adjusted according to total RNA content, as measured by RIBOGREEN®. The antisense oligonucleotides were tested in a series of experiments that had similar culture conditions. Results are presented as percent inhibition of PKK, relative to untreated control cells.

[2] = system: human PKK mRNA; assay: Antisense inhibition of human PKK mRNA in HepaRG cells, 5,000 nM (Example 2); assay type: cell-based
How it was run: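 Percent inhibition of PKK mRNA is reported relative to untreated cells, after adjustment for total RNA by RIBOGREEN. Gapmers of 16–20 nucleosides with 2′-MOE wings were delivered at 5,000 nM by electroporation into HepaRG cells and left for roughly 24 hours before RNA isolation.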

[3] = PKK mRNA, HepaRG cells, 1,000 nM antisense oligonucleotide, Table 31
[4] = HepaRG cells, electroporation with 1,000 nM antisense oligonucleotide, approximately 24 hours, primer probe set RTS3454, relative to untreated control cells, experiment of Table 24
[5] = Table 28, HepaRG cells, 1,000 nM antisense oligonucleotide, human PKK mRNA
[6] = Table 27, HepaRG cells, 1,000 nM antisense oligonucleotide, human PKK mRNA
[7] = HepaRG cells, electroporation with 1,000 nM antisense oligonucleotide, approx. 24 hours, PKK mRNA by RT-PCR (RTS3454), relative to untreated control cells, Table 26 experiment
[8] = HepaRG cells, electroporation with 1,000 nM antisense oligonucleotide, approximately 24 hours, primer probe set RTS3454, relative to untreated control cells, experiment of Table 23
[9] = Table 20, HepaRG cells, electroporation with 1,000 nM antisense oligonucleotide, approximately 24 hours, PKK mRNA by RT-PCR (RTS3454), relative to untreated control cells
[10] = Table 22 experiment, HepaRG cells, electroporation with 1,000 nM antisense oligonucleotide, approx. 24 hours, PKK mRNA by RT-PCR (RTS3454), relative to untreated control cells
[11] = HepaRG cells, electroporation with 1,000 nM antisense oligonucleotide, approx. 24 hours, PKK mRNA by RT-PCR (RTS3454), relative to untreated control cells, Table 25 experiment
[12] = Table 7, HepaRG cells, electroporation with 5,000 nM antisense oligonucleotide, approx. 24 hours, PKK mRNA by RT-PCR (RTS3454), relative to untreated control cells
[13] = HepaRG cells, 5,000 nM antisense oligonucleotide, 5-10-5 gapmers, Table 17
[14] = HepaRG cells, 5,000 nM antisense oligonucleotide, 5-10-5 gapmers, Table 16

548674 (antisense eG*eA*kG*dA*dG*dA*d[5mC]*dG*dG*d[5mC]*dA*d[5mC]*d[5mC]*k[5mC]*kT*eG) [compound 548674]
% inhibition [1, 3]: 4%

547825 (eT*e[5mC]*kG*dA*dT*dG*dT*dA*d[5mC]*dT*dT*dT*dT*kG*kG*e[5mC]; antisense) [compound 547825]
% inhibition ([1]; Table 21 experiment, HepaRG cells, electroporation with 1,000 nM antisense oligonucleotide, approx. 24 hours, PKK mRNA by RT-PCR (RTS3454), relative to untreated control cells): 59%

548040 (eG*eT*kG*dA*dG*dA*dA*dA*dG*dG*dT*dG*dT*kA*kT*e[5mC]; antisense) [compound 548040]
% inhibition [1, 4]: 62%

548502 (antisense eA*eA*kT*dT*d[5mC]*dT*dT*dG*dG*dA*d[5mC]*d[5mC]*dA*kA*kG*eG) [compound 548502]
% inhibition [1, 5]: 25%

548359 (antisense e[5mC]*e[5mC]*kT*dA*dG*dT*d[5mC]*d[5mC]*dT*d[5mC]*dA*dA*dG*kT*kT*eT) [compound 548359]
% inhibition [1, 6]: 0%

548513 (antisense e[5mC]*e[5mC]*kT*dG*d[5mC]*dT*dG*dA*dT*dT*dG*dT*dG*kT*k[5mC]*eT) [compound 548513]
% inhibition [1, 5]: 16%

548242 (eG*e[5mC]*kA*dT*dA*d[5mC]*dT*d[5mC]*dG*d[5mC]*d[5mC]*dT*dT*kT*kG*eT; antisense) [compound 548242]
% inhibition [1, 7]: 25%

548681 (antisense eG*eA*kT*dA*dT*d[5mC]*dA*dT*d[5mC]*dA*dT*d[5mC]*d[5mC]*k[5mC]*kA*eA) [compound 548681]
% inhibition [1, 3]: 22%

547964 (antisense eG*eG*kT*dT*d[5mC]*dA*dG*dG*dT*dA*dA*dA*dG*kT*kT*e[5mC]) [compound 547964]
% inhibition [1, 8]: 0%

547891 (eA*eT*kT*dG*dT*dT*d[5mC]*d[5mC]*dG*dG*dT*dA*d[5mC]*kT*k[5mC]*eT; antisense) [compound 547891]
% inhibition [1, 9]: 84%
% inhibition [1, 10]: 88%

548303 (eG*eG*kG*d[5mC]*d[5mC]*d[5mC]*d[5mC]*d[5mC]*dA*dT*dG*dT*d[5mC]*k[5mC]*kA*eT; antisense) [compound 548303]
% inhibition [1, 7]: 0%

547894 (eG*eG*k[5mC]*dA*dA*dT*dT*dG*dT*dT*d[5mC]*d[5mC]*dG*kG*kT*eA; antisense) [compound 547894]
% inhibition [1, 9]: 92%
% inhibition [1, 10]: 91%

547923 (eA*eT*k[5mC]*dT*dG*dG*dA*dG*dT*dG*dA*dG*dA*kA*k[5mC]*e[5mC]; antisense) [compound 547923]
% inhibition [1, 8]: 68%

548246 (eT*eT*k[5mC]*d[5mC]*dA*dT*dG*d[5mC]*dA*dT*dA*d[5mC]*dT*k[5mC]*kG*e[5mC]; antisense) [compound 548246]
% inhibition [1, 7]: 46%

548370 (eA*e[5mC]*kG*dA*dA*dG*dT*d[5mC]*dT*d[5mC]*dT*dT*dT*k[5mC]*k[5mC]*eT; antisense) [compound 548370]
% inhibition [1, 6]: 53%

548612 (antisense eG*eG*k[5mC]*dG*dG*dG*dA*dT*d[5mC]*dG*dG*dT*dG*kG*kT*eG) [compound 548612]
% inhibition ([1]; HepaRG cells, 1,000 nM antisense oligonucleotide, Table 29): 20%

547879 (antisense eT*e[5mC]*kA*dA*d[5mC]*dA*d[5mC]*dT*dG*d[5mC]*dT*dA*dA*k[5mC]*k[5mC]*eT) [compound 547879]
% inhibition [1, 9]: 69%
% inhibition [1, 10]: 65%

548199 (eG*e[5mC]*kA*d[5mC]*dT*dG*d[5mC]*dA*dG*dG*d[5mC]*dA*dA*kT*kA*eT; antisense) [compound 548199]
% inhibition [1, 11]: 24%

548158 (eG*e[5mC]*kA*dT*dT*dG*dT*d[5mC]*dA*dG*d[5mC]*d[5mC]*d[5mC]*k[5mC]*kT*eG; antisense) [compound 548158]
% inhibition [1, 11]: 18%

548386 (eA*eG*k[5mC]*d[5mC]*d[5mC]*dT*dG*dT*dT*dT*dG*dG*dT*kT*kT*eT; antisense) [compound 548386]
% inhibition ([1]; Table 30, human PKK mRNA, HepaRG cells, 1,000 nM antisense oligonucleotide): 0%

548260 (antisense eA*eG*kG*dA*dG*dT*dT*dT*dG*dT*d[5mC]*dA*dG*kA*kA*e[5mC]) [compound 548260]
% inhibition [1, 7]: 28%

548032 (eA*eG*kA*dT*dG*d[5mC]*dG*d[5mC]*d[5mC]*dA*dA*dA*d[5mC]*kA*kT*e[5mC]; antisense) [compound 548032]
% inhibition [1, 4]: 51%

546450 (eG*eT*eG*eG*e[5mC]*d[5mC]*d[5mC]*dT*d[5mC]*dT*dT*dA*dA*dG*dT*e[5mC]*eA*e[5mC]*e[5mC]*eA; antisense) [compound 546450]
% inhibition ([2]; HepaRG cells, electroporation, 5,000 nM antisense oligonucleotide, approx. 24 hours, primer probe set RTS3454, relative to untreated control cells, Table 12): 73%

547378 (eT*eA*e[5mC]*eA*eT*dT*dT*dG*dT*dA*dT*dA*dG*dA*dA*eT*eG*eT*eA*eA; antisense) [compound 547378]
% inhibition [2, 12]: 0%

547071 (eG*e[5mC]*eA*eG*e[5mC]*d[5mC]*d[5mC]*d[5mC]*d[5mC]*d[5mC]*dA*dG*dA*dA*dA*eT*e[5mC]*e[5mC]*e[5mC]*eA; antisense) [compound 547071]
% inhibition [2, 13]: 27%

546917 (eA*eT*e[5mC]*eA*e[5mC]*dT*dG*dT*d[5mC]*d[5mC]*dT*dA*dT*dA*dA*e[5mC]*eT*eA*eT*eT; antisense) [compound 546917]
% inhibition [2, 14]: 63%

547327 (antisense eT*eT*eG*eA*eT*dG*dA*d[5mC]*d[5mC]*dA*d[5mC]*dA*dT*dT*dG*e[5mC]*eT*eT*e[5mC]*eA) [compound 547327]
% inhibition ([2]; HepaRG cells, electroporation with 5,000 nM antisense oligonucleotide, approximately 24 hours, PKK mRNA by RT-PCR (RTS3454), relative to untreated control cells, Table 6 experiment): 45%

547733 (eT*eA*eG*eG*eA*dT*dT*dG*dG*dT*dG*dG*dT*dG*dG*eG*eA*eT*eT*eG; antisense) [compound 547733]
% inhibition [2, 13]: 0%

547461 (antisense eG*eT*eA*eA*eT*dT*d[5mC]*dA*dA*dA*dG*dG*dA*dG*d[5mC]*e[5mC]*eT*eG*eG*eA) [compound 547461]
% inhibition ([2]; Table 9 experiment, HepaRG cells, 20,000 cells per well, electroporation with 5,000 nM antisense oligonucleotide, approx. 24 hours, PKK mRNA by RT-PCR (RTS3454), relative to untreated control cells): 49%
% inhibition ([2]; Table 10 experiment, HepaRG cells, 20,000 cells per well, electroporation with 5,000 nM antisense oligonucleotide, approx. 24 hours, PKK mRNA by RT-PCR (RTS3454), relative to untreated control cells): 55%

547750 (eT*eG*eG*eT*eT*dG*dG*dT*dG*dG*d[5mC]*dG*dG*dG*dA*eT*e[5mC]*eG*eG*eT; antisense) [compound 547750]
% inhibition [2, 13]: 41%

547711 (antisense e[5mC]*e[5mC]*eT*eT*eT*dA*dG*d[5mC]*d[5mC]*dA*d[5mC]*dT*d[5mC]*d[5mC]*dT*e[5mC]*eT*eT*eG*e[5mC]) [compound 547711]
% inhibition [2, 14]: 45%

548738 (DNA eT*eA*e[5mC]*eT*dA*dG*dT*dT*dT*d[5mC]*d[5mC]*dT*dA*eT*eA*eA*e[5mC]; antisense) [compound 548738]
% inhibition ([2]; human PKK mRNA, HepaRG cells, 5,000 nM antisense oligonucleotide, Table 18): 0%

546285 (antisense eG*eT*eT*eA*e[5mC]*dA*d[5mC]*dA*dA*dT*d[5mC]*dT*d[5mC]*dA*dA*eA*eG*eA*eG*eT) [compound 546285]
% inhibition ([2]; Table 8, HepaRG cells, electroporation with 5,000 nM antisense oligonucleotide, approx. 24 hours, PKK mRNA by RT-PCR (RTS3454), relative to untreated control cells): 76%

547391 (eA*eT*eA*eT*e[5mC]*d[5mC]*dA*dG*dA*dT*dA*dT*dG*dG*dT*eG*eT*eT*eT*eT; antisense) [compound 547391]
% inhibition [2, 12]: 32%

547310 (antisense eA*eT*e[5mC]*eT*eT*dT*d[5mC]*dA*dA*dG*dA*dA*dG*d[5mC]*dA*eA*e[5mC]*e[5mC]*eA*eA) [compound 547310]
% inhibition ([2]; HepaRG cells, electroporation with 5,000 nM antisense oligonucleotide, approximately 24 hours, PKK mRNA by RT-PCR (RTS3454), relative to untreated control cells, Table 5 experiment): 81%
